Source: patent US6737383B1, “Herbicidal oxadiazolidines” (priority 1999, dated 2004)

Assays:
purple nutsedge = assay: Test B pre/postemergence purple nutsedge; format: in vivo, Cyperus rotundus
Outline: (§1)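 Response is a visual 0-to-10 score relative to untreated plants, where 0 means no effect and 10 means complete control, taken twelve to sixteen days after application. Treatments went onto soil at planting and onto foliage of 1- to 4-leaf plants, using a surfactant-containing non-phytotoxic solvent.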

crabgrass = assay: Test B pre/postemergence crabgrass; format: in vivo, Digitaria sanguinalis
Outline: as §1

morningglory = assay: Test B pre/postemergence morningglory; format: in vivo, Ipomoea hederacea
Outline: as §1

rape = assay: Test B pre/postemergence rape; format: in vivo, Brassica napus
Outline: as §1

wild oat = assay: Test B pre/postemergence wild oat; format: in vivo, Avena fatua
Outline: as §1

pigweed = assay: Test B pre/postemergence pigweed; format: in vivo, Amaranthus retroflexus
Outline: as §1

corn = assay: Test B pre/postemergence corn; format: in vivo, Zea mays
Outline: as §1

wheat = assay: Test B pre/postemergence wheat; format: in vivo, Triticum aestivum
Outline: as §1

blackgrass = assay: Test B pre/postemergence blackgrass; format: in vivo, Alopecurus myosuroides
Outline: as §1

rice = assay: Test B flood test rice; format: in vivo, Oryza sativa
Outline: (§2)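 Plants were grown to the 2-leaf stage before treatment with test chemical, then held in a greenhouse for twelve to sixteen days. Injury was visually rated against untreated controls on a 0–10 scale, where 0 is no effect and 10 is complete control.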

giant foxtail = assay: Test B pre/postemergence giant foxtail; format: in vivo, Setaria faberii
Outline: as §1

bamyardgrass = assay: Test B flood test barnyardgrass; format: in vivo, Echinochloa crus-galli
Outline: as §2

sugar beet = assay: Test B pre/postemergence sugar beet; format: in vivo, Beta vulgaris
Outline: as §1

duck salad = assay: Test B flood test duck salad; format: in vivo, Heteranthera limosa
Outline: as §2

bedstraw = assay: Test B pre/postemergence bedstraw; format: in vivo, Galium aparine; conditions: Postemergence, Rate 500 g/ha; scale of 0 to 10 where 0 is no effect and 10 is complete control
Outline: as §1

cocklebur = assay: Test B pre/postemergence cocklebur; format: in vivo, Xanthium strumarium
Outline: as §1

velvetleaf = assay: Test B pre/postemergence velvetleaf; format: in vivo, Abutilon theophrasti
Outline: as §1

surinam grass = assay: Test B pre/postemergence surinam grass; format: in vivo, Brachiaria decumbens
Outline: as §1

soybean = assay: Test B pre/postemergence soybean; format: in vivo, Glycine max
Outline: as §1

smallflower flatsedge = assay: Test B flood test smallflower flatsedge; format: in vivo, Cyperus difformis
Outline: as §2

[1] = Postemergence, Rate 250 g/ha, scale 0 to 10, 0 is no effect, 10 is complete control
[2] = Postemergence, Rate 500 g/ha, scale of 0 to 10 where 0 is no effect and 10 is complete control
[3] = Preemergence, Rate 62 g/ha, scale 0 to 10 (0 no effect, 10 complete control)
[4] = Preemergence, Rate 125 g/ha, scale of 0 to 10 where 0 is no effect and 10 is complete control
[5] = Preemergence, Rate 250 g/ha, scale of 0 to 10 where 0 is no effect and 10 is complete control
[6] = Preemergence, Rate 500 g/ha, scale of 0 to 10 where 0 is no effect and 10 is complete control
[7] = Rate 62 g/ha, Postemergence, scale of 0 to 10 where 0 is no effect and 10 is complete control
[8] = Postemergence, Rate 125 g/ha, scale 0 to 10, 0 is no effect, 10 is complete control
[9] = Rate 62 g/ha, flood test species, Pre-emergence, visual evaluation after twelve to sixteen days
[10] = Rate 125 g/ha, under heading Pre-emergence, flood test species, visual evaluation after twelve to sixteen days
[11] = Rate 250 g/ha, Pre-emergence, flood-test species, scale 0 to 10, 0 is no effect, 10 is complete control
[12] = Rate 500 g/ha, Pre-emergence, flood test species, scale 0 to 10 (0 no effect, 10 complete control)

CC(C)N(C(=O)n1oc(=O)[nH]c1=O)c1ccc(F)cc1F [Compound 391]
0: Plant response rating, Nutsedge (purple nutsedge; [1]) | Nutsedge plant response rating (purple nutsedge; [2]) | Plant response rating, Nutsedge (purple nutsedge; [3]) | Plant response rating, Nutsedge (purple nutsedge; [4]) | Nutsedge plant response rating (purple nutsedge; [5]) | Nutsedge plant response rating (purple nutsedge; [6]) | Nutsedge plant response rating (purple nutsedge; [7]) | Plant response rating, Crabgrass (crabgrass; [8]) | Plant response rating, Crabgrass (crabgrass; [1]) | Crabgrass plant response rating (crabgrass; [2]) | Plant response rating, Crabgrass (crabgrass; [3]) | Plant response rating, Crabgrass (crabgrass; [4]) | Crabgrass plant response rating (crabgrass; [5]) | Crabgrass plant response rating (crabgrass; [6]) | Crabgrass plant response rating (crabgrass; [7]) | Plant response rating, Morningglory (morningglory; [1]) | Morningglory plant response rating (morningglory; [2]) | Plant response rating, Morningglory (morningglory; [3]) | Plant response rating, Morningglory (morningglory; [4]) | Morningglory plant response rating (morningglory; [5]) | Morningglory plant response rating (morningglory; [6]) | Morningglory plant response rating (morningglory; [7]) | Plant response rating, Rape (rape; [1]) | Rape plant response rating (rape; [2]) | Plant response rating, Rape (rape; [3]) | Plant response rating, Rape (rape; [4]) | Rape plant response rating (rape; [5]) | Rape plant response rating (rape; [6]) | Rape plant response rating (rape; [7]) | Plant response rating, Wild oats (wild oat; [1]) | Wild oats plant response rating (wild oat; [2]) | Plant response rating, Wild oats (wild oat; [3]) | Plant response rating, Wild oats (wild oat; [4]) | Wild oats plant response rating (wild oat; [5]) | Wild oats plant response rating (wild oat; [6]) | Wild oats plant response rating (wild oat; [7]) | Plant response rating, Redroot pigweed (pigweed; [1]) | Redroot pigweed plant response rating (pigweed; [2]) | Plant response rating, Redroot pigweed (pigweed; [3]) | Plant response rating, Redroot pigweed (pigweed; [4]) | Redroot pigweed plant response rating (pigweed; [5]) | Redroot pigweed plant response rating (pigweed; [6]) | Redroot pigweed plant response rating (pigweed; [7]) | Plant response rating, Corn (corn; [8]) | Plant response rating, Corn (corn; [1]) | Corn plant response rating (corn; [2]) | Plant response rating, Corn (corn; [3]) | Plant response rating, Corn (corn; [4]) | Corn plant response rating (corn; [5]) | Corn plant response rating (corn; [6]) | Corn plant response rating (corn; [7]) | Plant response rating, Wheat (wheat; [1]) | Wheat plant response rating (wheat; [2]) | Plant response rating, Wheat (wheat; [3]) | Plant response rating, Wheat (wheat; [4]) | Wheat plant response rating (wheat; [5]) | Wheat plant response rating (wheat; [6]) | Wheat plant response rating (wheat; [7]) | Plant response rating, Blackgrass (blackgrass; [1]) | Blackgrass plant response rating (blackgrass; [2]) | Plant response rating, Blackgrass (blackgrass; [3]) | Plant response rating, Blackgrass (blackgrass; [4]) | Blackgrass plant response rating (blackgrass; [5]) | Blackgrass plant response rating (blackgrass; [6]) | Plant response rating, Rice (0 to 10 scale, 0 is no effect, 10 is complete control) (rice; [9]) | Rice plant response rating (0 to 10 scale, 0 is no effect, 10 is complete control) (rice; [10]) | Rice plant response rating (rice; [11]) | Rice plant response rating (rice; [12]) | Plant response rating, Giant foxtail (giant foxtail; [8]) | Plant response rating, Giant foxtail (giant foxtail; [1]) | Giant foxtail plant response rating (giant foxtail; [2]) | Plant response rating, Giant foxtail (giant foxtail; [3]) | Plant response rating, Giant foxtail (giant foxtail; [4]) | Giant foxtail plant response rating (giant foxtail; [5]) | Giant foxtail plant response rating (giant foxtail; [6]) | Giant foxtail plant response rating (giant foxtail; [7]) | Plant response rating, Barnyardgrass (0 to 10 scale, 0 is no effect, 10 is complete control) (bamyardgrass; [9]) | Barnyardgrass plant response rating (0 to 10 scale, 0 is no effect, 10 is complete control) (bamyardgrass; [10]) | Barnyardgrass plant response rating (bamyardgrass; [11]) | Barnyardgrass plant response rating (bamyardgrass; [12]) | Plant response rating, Sugarbeets (sugar beet; [1]) | Sugarbeets plant response rating (sugar beet; [2]) | Plant response rating, Sugarbeets (sugar beet; [3]) | Plant response rating, Sugarbeets (sugar beet; [4]) | Sugarbeets plant response rating (sugar beet; [5]) | Sugarbeets plant response rating (sugar beet; [6]) | Sugarbeets plant response rating (sugar beet; [7]) | Plant response rating, Ducksalad (0 to 10 scale, 0 is no effect, 10 is complete control) (duck salad; [9]) | Ducksalad plant response rating (0 to 10 scale, 0 is no effect, 10 is complete control) (duck salad; [10]) | Ducksalad plant response rating (duck salad; [11]) | Ducksalad plant response rating (duck salad; [12]) | Bedstraw plant response rating (bedstraw) | Plant response rating, Cocklebur (cocklebur; [8]) | Plant response rating, Cocklebur (cocklebur; [1]) | Cocklebur plant response rating (cocklebur; [2]) | Plant response rating, Cocklebur (cocklebur; [3]) | Plant response rating, Cocklebur (cocklebur; [4]) | Cocklebur plant response rating (cocklebur; [5]) | Cocklebur plant response rating (cocklebur; [6]) | Cocklebur plant response rating (cocklebur; [7]) | Plant response rating, Velvetleaf (velvetleaf; [1]) | Velvetleaf plant response rating (velvetleaf; [2]) | Plant response rating, Velvetleaf (velvetleaf; [3]) | Plant response rating, Velvetleaf (velvetleaf; [4]) | Velvetleaf plant response rating (velvetleaf; [5]) | Velvetleaf plant response rating (velvetleaf; [6]) | Velvetleaf plant response rating (velvetleaf; [7]) | Plant response rating, B. signalgrass (surinam grass; [8]) | Plant response rating, B. signalgrass (surinam grass; [1]) | B. signalgrass plant response rating (surinam grass; [2]) | Plant response rating, B. signalgrass (surinam grass; [3]) | Plant response rating, B. signalgrass (surinam grass; [4]) | B. signalgrass plant response rating (surinam grass; [5]) | B. signalgrass plant response rating (surinam grass; [6]) | B. signalgrass plant response rating (surinam grass; [7]) | Plant response rating, Soybean (soybean; [1]) | Soybean plant response rating (soybean; [2]) | Plant response rating, Soybean (soybean; [3]) | Plant response rating, Soybean (soybean; [4]) | Soybean plant response rating (soybean; [5]) | Soybean plant response rating (soybean; [6]) | Soybean plant response rating (soybean; [7]) | Plant response rating, S. Flatsedge (0 to 10 scale, 0 is no effect, 10 is complete control) (smallflower flatsedge; [9]) | S. Flatsedge plant response rating (0 to 10 scale, 0 is no effect, 10 is complete control) (smallflower flatsedge; [10]) | S. Flatsedge plant response rating (smallflower flatsedge; [11]) | S. Flatsedge plant response rating (smallflower flatsedge; [12])
